Test results from ChEMBL document CHEMBL1201862, “PubChem BioAssay data set” (2004).
The source made the active and inactive calls.

What was measured:
Cytochrome P450 2D6 = Cytochrome P450 2D6 (Homo sapiens, UniProt P10635);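 further: CYP2D6 member of a cytochrome P450 panel assay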
Cytochrome P450 2C9 = Cytochrome P450 2C9 (Homo sapiens, UniProt P11712)
Cytochrome P450 2C19 = Cytochrome P450 2C19 (Homo sapiens, UniProt P33261); assay: Cytochrome panel assay with activity outcomes. Panel member name: p450-cyp2c19 Compounds with AC50 equal or less than 10 uM are considered active; assay type: functional
Sequence of Cytochrome P450 2C19 (P33261 whole entry): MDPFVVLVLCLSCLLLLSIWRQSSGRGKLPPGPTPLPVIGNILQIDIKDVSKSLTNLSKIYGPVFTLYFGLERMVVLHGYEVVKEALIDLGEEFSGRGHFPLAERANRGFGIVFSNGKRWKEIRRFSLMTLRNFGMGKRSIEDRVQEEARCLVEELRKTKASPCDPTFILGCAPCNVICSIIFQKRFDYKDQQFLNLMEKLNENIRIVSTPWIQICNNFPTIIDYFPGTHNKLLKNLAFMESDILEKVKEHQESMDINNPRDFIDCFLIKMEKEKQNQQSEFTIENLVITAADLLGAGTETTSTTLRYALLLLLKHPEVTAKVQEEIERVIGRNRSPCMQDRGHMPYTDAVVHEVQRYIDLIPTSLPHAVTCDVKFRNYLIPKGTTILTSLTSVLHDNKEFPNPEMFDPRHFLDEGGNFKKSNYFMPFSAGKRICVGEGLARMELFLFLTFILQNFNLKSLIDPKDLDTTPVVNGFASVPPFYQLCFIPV

Cytochrome P450 1A2 = target: T1, Cytochrome P450 1A2 (Homo sapiens, UniProt P05177);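 further: PubChem cytochrome P450 panel assay, CYP1A2 panel member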
T1 sequence (P05177 whole entry): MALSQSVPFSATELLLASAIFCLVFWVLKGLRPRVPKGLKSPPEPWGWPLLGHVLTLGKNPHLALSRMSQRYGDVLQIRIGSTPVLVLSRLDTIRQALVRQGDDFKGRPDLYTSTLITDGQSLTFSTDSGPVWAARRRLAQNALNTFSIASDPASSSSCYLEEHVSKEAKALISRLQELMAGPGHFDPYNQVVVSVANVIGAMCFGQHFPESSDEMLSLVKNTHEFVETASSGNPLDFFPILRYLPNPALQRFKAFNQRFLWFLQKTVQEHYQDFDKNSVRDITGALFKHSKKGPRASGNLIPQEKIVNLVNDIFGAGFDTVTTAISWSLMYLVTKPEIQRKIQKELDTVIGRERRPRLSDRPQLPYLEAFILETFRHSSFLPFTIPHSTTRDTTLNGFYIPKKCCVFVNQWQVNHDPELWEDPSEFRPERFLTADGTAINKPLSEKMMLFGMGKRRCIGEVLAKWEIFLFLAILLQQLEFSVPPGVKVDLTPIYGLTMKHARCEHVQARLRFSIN

Mu-type opioid receptor = Mu-type opioid receptor (Homo sapiens, UniProt P35372); assay: (§1) Counterscreen for agonists of heterodimerization of the mu 1 (OPRM1) and delta 1 (OPRD1) opioid receptors: Luminescence-based cell-based high throughput dose response assay to identify agonists of OPRM1 homodimerization.; assay type: functional
Sequence of Mu-type opioid receptor (P35372 whole entry): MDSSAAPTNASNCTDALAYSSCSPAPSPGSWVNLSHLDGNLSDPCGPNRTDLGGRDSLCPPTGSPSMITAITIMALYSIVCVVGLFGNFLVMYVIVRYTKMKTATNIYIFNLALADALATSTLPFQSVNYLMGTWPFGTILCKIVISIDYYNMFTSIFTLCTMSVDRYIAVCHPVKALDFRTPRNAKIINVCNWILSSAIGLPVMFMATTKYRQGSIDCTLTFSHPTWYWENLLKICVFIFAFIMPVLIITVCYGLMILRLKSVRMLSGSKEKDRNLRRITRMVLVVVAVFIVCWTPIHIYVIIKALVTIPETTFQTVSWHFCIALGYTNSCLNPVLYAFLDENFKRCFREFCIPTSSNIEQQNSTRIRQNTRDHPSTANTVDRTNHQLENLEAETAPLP

[1] = target: Delta-type opioid receptor (Homo sapiens, UniProt P41143); assay: as §1, with “of OPRD1” for “of OPRM1”, “homodimerization. [Related pubchem assays (depositor defined):AID504326, AID504355, AID504692, AID504904, AID504905]” for “homodimerization.”; assay type: functional
Sequence of Delta-type opioid receptor (P41143 whole entry): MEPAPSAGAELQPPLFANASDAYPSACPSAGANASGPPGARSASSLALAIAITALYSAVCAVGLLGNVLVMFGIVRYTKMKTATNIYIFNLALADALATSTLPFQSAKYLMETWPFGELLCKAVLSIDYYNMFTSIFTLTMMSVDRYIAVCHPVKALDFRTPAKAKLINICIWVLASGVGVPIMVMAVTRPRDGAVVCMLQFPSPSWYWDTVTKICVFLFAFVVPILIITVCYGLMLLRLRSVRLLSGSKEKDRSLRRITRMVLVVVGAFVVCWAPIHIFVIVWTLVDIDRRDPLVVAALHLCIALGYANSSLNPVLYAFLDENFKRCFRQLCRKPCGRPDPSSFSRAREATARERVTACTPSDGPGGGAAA

[2] = target: Opioid receptors; mu & delta (Homo sapiens, UniProt P41143+P35372); assay: agonists of MOR-DOR heterodimerization, dose response, cell-based, luminescence (AID 588407); assay type: functional
[3] = target: T2, Short transient receptor potential channel 4 (Mus musculus, UniProt Q9QUQ5); assay: mouse TRPC4 channel activators, dose response, cell-based, HEK293 TRPC4/mu-opioid, Fluo-4 calcium (AID 434937); assay type: functional
T2 sequence (Q9QUQ5 whole entry): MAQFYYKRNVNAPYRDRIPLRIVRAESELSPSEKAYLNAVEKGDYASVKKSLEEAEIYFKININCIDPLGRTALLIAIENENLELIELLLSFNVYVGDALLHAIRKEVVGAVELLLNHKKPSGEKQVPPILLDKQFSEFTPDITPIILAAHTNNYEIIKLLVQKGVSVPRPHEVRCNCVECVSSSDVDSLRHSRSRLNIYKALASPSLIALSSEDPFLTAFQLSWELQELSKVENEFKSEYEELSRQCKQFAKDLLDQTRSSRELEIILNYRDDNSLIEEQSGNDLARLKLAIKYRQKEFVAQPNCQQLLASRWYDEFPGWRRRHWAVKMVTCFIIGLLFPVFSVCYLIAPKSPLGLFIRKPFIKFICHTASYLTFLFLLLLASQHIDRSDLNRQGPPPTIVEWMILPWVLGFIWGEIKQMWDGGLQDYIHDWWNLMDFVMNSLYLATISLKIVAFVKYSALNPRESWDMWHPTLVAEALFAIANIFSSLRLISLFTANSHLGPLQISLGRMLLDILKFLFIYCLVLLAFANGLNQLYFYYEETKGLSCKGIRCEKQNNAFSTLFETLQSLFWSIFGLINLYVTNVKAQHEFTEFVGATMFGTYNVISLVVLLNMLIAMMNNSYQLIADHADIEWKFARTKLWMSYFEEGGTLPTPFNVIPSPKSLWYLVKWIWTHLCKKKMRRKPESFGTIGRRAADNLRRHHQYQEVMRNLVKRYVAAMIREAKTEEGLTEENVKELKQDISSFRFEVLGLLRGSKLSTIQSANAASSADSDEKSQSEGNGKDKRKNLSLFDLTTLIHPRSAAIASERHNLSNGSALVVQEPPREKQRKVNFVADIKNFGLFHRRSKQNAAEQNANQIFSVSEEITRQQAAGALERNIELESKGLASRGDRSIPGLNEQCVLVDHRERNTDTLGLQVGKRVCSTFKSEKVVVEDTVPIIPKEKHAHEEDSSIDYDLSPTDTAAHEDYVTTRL

[4] = target: 5-hydroxytryptamine receptor 5A (Homo sapiens, UniProt P47898); assay: Counterscreen for agonists of OPRM1-OPRD1 heterodimerization: luminescence-based cell-based high throughput dose response assay to identify agonists of 5-hydroxytryptamine (serotonin) 5A receptor (HTR5A). [Related pubchem assays (depositor defined):AID504326, AID504355, AID504692, AID504904, AID504905]; assay type: functional
Sequence of 5-hydroxytryptamine receptor 5A (P47898 whole entry): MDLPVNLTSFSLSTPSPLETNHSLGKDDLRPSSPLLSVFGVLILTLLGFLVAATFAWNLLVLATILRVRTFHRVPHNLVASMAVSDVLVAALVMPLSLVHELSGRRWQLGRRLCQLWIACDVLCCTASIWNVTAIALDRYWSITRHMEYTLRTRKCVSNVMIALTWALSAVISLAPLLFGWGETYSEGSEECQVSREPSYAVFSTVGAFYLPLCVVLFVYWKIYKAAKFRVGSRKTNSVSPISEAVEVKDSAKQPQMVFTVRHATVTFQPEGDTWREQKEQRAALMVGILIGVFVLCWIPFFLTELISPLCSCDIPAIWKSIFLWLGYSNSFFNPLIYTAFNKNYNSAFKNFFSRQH

[5] = target: Dual specificity protein phosphatase 3 (Homo sapiens, UniProt P51452); assay: SAR VHR1 Fluorescent Assay for In Vitro dose response studies Set 3. [Related pubchem assays (depositor defined):AID1654, AID1661, AID1878]; assay type: functional
Sequence of Dual specificity protein phosphatase 3 (P51452 whole entry): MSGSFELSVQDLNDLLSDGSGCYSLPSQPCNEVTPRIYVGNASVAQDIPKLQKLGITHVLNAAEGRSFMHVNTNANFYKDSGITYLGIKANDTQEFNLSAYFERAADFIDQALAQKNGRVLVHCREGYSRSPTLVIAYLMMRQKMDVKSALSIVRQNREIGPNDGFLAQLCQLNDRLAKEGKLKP

[6] = growth suppression of PTEN-null colon cells, dose response, cell-based, HCT116 PTEN knockout (AID 1047); assay type: functional;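 further: HCT116 colon tumor cells with PTEN knocked out; cells exposed to compound for 60 hours before readout; potency for loss of cell viability measured by luminescence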
MDCK = assay: antiviral activity against H1N1 influenza, dose response, cell-based, strain KY136 (AID 540257); assay type: functional; details: Canis lupus familiaris
[7] = growth suppression of beta-catenin-knockout colon cells, dose response, cell-based, HCT116, human colon tumor (AID 1045); assay type: functional;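 further: HCT116 colon tumor cells with beta catenin knocked out; cells exposed to compound for 60 hours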
[8] = HeLa cell cytotoxicity, dose response, cytotoxicity control for MgcRacGAP inhibitor project (AID 624300); assay type: functional
Nonstructural protein 1 = Nonstructural protein 1 (Influenza A virus, UniProt Q194T2); assay type: functional, Influenza A virus (A/California/07/2009(H1N1))
Sequence of Nonstructural protein 1 (Q194T2 whole entry): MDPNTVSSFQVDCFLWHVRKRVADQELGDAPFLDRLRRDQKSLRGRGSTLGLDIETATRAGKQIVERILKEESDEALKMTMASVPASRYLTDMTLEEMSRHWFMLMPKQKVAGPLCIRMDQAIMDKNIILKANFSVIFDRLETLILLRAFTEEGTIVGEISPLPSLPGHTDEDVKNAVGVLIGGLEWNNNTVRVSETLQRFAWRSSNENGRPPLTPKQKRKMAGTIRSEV

[9] = target: T3, Heat shock factor protein 1 (Mus musculus, UniProt P38532); assay: HSF1 potentiators in luciferase reporter cells, confirmation, cell-based, NIH3T3, luminescence, dose retest (AID 435004); assay type: functional;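 further: stress induced by proteasome inhibitor MG132 added 30 min after compound; luciferase reporter driven by HSF1 response element in NIH3T3 cells; actives raise luminescence as potentiators of the MG132 stress response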
T3 sequence (P38532 whole entry): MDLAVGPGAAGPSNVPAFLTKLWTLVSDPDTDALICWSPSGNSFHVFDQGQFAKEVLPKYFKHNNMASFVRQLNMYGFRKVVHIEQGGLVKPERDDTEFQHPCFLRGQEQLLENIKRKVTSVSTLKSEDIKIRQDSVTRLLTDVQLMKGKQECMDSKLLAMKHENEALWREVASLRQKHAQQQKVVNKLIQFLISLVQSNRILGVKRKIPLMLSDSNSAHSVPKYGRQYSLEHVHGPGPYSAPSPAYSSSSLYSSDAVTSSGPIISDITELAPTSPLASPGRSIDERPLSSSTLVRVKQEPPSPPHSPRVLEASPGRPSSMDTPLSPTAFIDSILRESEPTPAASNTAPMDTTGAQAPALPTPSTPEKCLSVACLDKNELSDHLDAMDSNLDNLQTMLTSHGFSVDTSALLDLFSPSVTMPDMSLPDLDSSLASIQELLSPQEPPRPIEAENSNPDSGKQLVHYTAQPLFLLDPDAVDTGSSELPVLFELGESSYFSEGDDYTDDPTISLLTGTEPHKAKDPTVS

[10] = target: T4, Rac GTPase-activating protein 1 (Homo sapiens, UniProt Q9H0H5); assay: MgcRacGAP GTPase-activating activity inhibitors, confirmation, biochemical, ADP Hunter fluorescence, primary and confirmatory (AID 624330); assay type: functional
T4 sequence (Q9H0H5 whole entry): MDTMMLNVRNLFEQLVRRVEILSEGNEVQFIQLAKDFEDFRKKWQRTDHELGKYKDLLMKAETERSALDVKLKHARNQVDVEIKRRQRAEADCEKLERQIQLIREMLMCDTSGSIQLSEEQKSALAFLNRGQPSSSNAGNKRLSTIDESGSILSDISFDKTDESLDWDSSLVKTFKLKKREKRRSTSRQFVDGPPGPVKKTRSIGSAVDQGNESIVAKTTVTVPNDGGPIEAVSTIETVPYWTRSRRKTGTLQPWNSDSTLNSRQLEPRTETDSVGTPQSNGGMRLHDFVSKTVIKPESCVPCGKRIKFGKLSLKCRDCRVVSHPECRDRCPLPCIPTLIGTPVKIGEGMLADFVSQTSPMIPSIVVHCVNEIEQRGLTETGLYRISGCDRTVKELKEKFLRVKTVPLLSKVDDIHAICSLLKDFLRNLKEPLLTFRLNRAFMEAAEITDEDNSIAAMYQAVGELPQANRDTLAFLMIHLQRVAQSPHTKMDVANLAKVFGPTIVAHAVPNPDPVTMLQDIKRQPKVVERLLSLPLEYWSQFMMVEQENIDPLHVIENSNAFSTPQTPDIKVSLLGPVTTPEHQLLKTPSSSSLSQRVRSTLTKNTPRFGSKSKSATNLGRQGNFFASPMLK

[11] = target: T5, Mannose-6-phosphate isomerase (Homo sapiens, UniProt P34949); assay: human PMI inhibitors, high substrate, primary screen, biochemical, fluorescence intensity, high mannose 6-phosphate (AID 1220)
T5 sequence (P34949 whole entry): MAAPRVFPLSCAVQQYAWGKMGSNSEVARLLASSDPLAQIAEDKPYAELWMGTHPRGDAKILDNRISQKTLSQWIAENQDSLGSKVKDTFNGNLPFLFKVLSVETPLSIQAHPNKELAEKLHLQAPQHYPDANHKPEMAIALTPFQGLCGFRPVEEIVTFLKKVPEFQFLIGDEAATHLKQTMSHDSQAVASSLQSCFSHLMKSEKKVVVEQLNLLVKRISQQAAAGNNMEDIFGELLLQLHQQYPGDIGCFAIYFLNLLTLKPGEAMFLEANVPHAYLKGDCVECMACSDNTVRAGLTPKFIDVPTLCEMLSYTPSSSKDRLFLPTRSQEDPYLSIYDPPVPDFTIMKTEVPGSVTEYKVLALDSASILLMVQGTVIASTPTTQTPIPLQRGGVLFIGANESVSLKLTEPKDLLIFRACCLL

[12] = target: Neurotensin receptor type 1 (Homo sapiens, UniProt P30989); assay type: functional;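 further: Image-based confirmatory dose-response assay measuring agonist activity at NTR1; NTR1-expressing U2OS osteosarcoma cells imaged for beta-arrestin GFP spot formation; agonist potency where compounds increase beta-arrestin recruitment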
Sequence of Neurotensin receptor type 1 (P30989 whole entry): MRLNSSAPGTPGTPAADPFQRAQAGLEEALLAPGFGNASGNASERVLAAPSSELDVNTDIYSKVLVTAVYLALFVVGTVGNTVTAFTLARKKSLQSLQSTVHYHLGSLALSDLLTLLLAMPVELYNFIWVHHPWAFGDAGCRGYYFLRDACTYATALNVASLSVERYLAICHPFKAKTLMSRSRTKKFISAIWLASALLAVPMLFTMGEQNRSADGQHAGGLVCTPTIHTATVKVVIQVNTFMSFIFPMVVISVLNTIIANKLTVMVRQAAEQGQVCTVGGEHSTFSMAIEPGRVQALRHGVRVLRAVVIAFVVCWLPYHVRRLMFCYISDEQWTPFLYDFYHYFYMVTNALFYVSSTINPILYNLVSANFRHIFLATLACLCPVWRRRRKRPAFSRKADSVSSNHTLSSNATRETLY

Sequence of Cytochrome P450 2D6 (P10635 whole entry): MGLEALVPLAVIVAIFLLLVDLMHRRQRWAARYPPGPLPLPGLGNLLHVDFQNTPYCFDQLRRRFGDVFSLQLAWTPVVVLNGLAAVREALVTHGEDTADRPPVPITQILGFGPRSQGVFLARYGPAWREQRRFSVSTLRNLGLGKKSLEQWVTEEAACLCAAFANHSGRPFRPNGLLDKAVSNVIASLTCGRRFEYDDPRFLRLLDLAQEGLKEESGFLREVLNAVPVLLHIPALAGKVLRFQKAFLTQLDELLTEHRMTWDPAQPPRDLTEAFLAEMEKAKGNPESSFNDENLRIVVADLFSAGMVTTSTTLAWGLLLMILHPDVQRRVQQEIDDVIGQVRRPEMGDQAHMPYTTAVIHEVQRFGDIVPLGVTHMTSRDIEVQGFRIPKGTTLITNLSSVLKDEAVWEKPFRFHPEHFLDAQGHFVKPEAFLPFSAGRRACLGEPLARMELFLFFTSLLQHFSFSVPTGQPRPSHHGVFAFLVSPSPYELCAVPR
Sequence of Cytochrome P450 2C9 (P11712 whole entry): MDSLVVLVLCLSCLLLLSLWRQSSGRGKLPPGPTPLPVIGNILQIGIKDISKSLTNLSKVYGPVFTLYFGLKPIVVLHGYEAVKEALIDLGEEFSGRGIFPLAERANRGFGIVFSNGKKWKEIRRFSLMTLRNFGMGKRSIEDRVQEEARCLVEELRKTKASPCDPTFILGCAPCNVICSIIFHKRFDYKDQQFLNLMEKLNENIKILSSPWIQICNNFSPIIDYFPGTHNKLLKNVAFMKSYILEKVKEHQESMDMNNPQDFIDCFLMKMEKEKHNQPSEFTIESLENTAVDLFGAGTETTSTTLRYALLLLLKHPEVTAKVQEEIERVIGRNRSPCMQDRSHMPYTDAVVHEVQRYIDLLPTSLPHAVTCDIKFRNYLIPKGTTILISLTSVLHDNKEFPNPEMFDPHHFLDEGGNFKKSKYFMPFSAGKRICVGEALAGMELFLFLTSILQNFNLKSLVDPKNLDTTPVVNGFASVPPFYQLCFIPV

With `Cn1cccc1C(=O)N1CCC2(CCCN(c3ncccn3)C2)CC1` the AC50 (Cytochrome P450 2D6) was “inconclusive”, the AC50 (Cytochrome P450 2C9) was “inconclusive” and the AC50 (Cytochrome P450 2C19) was “inconclusive”. The AC50 (Cytochrome P450 1A2) was “inconclusive”.

For `CN(C)CCCN(C(=O)c1ccc(S(=O)(=O)N(C)C2CCCCC2)cc1)c1nc2ccc(F)cc2s1.Cl`, the EC50 (Mu-type opioid receptor) was 4.85 µM (active), the EC50 [1] was 69.2 µM (inactive) and the EC50 [2] was > 0.3805 µM. The EC50 [3] was 1.88 µM (active) and the EC50 [4] was > 92.5 µM (inactive).

In the case of `Cn1cnnc1SCC(=O)Nc1ccc2nc(SCC(=O)c3ccccc3)sc2c1`, the IC50 [5] is reported as > 66 µM (inactive).

For `COC(=O)c1ccc2c(c1)C(C)(C)C(/C=C/c1ccc(O)cc1)=[N+]2C`, the EC50 [6] was 2.06 µM (active), the IC50 (MDCK) was 5.29 µM (active) and the EC50 [7] was 2.15 µM (active). For the same compound, the CC50 [8] was 35.1 µM (active), the IC50 (Nonstructural protein 1) was 20.2 µM (active) and the EC50 [9] was > 260 µM (inconclusive). The IC50 [10] was 29.5 µM (active), the IC50 [11] was > 50 µM (not active) and the EC50 [12] was 7.59 µM (active).
